From patent US20230271940A1, “HETEROARYL SUBSTITUTED 3-(1-OXOISOINDOLIN-2-YL)PIPERIDINE-2,6-DIONE DERIVATIVES AND USES THEREOF” (Novartis AG, priority 2020, published 2023) come the findings set out here.

Molecules are shown by their SMILES.

One assay deals with IKZF2 (Homo sapiens, UniProt Q96SW2+Q9UKS7). Description: Prolabel quantification of IKZF2 protein levels in 293GT cells. The format is cell-based.
Sequence of IKZF2 (Q9UKS7 whole entry): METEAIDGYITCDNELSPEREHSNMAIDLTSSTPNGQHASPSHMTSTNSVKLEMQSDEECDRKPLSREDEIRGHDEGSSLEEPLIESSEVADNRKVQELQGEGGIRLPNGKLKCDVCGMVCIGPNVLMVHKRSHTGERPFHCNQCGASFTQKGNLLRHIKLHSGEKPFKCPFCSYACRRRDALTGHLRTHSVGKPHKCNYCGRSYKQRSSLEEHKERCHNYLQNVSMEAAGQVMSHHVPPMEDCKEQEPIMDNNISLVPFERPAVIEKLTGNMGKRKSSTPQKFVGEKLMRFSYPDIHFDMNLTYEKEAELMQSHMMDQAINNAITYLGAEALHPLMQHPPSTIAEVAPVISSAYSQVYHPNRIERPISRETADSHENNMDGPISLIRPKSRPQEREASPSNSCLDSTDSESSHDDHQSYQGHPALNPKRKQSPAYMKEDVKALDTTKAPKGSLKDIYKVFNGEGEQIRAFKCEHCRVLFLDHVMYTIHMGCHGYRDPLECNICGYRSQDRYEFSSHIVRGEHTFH
Sequence of IKZF2 (Q96SW2 whole entry): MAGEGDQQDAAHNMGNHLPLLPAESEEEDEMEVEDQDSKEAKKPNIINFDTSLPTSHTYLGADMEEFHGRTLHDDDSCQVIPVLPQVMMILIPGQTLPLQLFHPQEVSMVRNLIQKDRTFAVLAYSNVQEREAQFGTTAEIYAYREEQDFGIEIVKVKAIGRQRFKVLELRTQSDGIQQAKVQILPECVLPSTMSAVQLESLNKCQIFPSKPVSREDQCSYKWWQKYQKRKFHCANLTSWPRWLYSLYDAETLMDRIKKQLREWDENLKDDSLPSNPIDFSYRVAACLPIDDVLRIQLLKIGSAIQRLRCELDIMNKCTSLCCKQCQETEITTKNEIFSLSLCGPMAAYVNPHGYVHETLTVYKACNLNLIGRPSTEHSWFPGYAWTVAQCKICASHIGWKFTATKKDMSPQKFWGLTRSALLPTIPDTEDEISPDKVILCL
Sequence of IKZF2 (Q16531 whole entry partner): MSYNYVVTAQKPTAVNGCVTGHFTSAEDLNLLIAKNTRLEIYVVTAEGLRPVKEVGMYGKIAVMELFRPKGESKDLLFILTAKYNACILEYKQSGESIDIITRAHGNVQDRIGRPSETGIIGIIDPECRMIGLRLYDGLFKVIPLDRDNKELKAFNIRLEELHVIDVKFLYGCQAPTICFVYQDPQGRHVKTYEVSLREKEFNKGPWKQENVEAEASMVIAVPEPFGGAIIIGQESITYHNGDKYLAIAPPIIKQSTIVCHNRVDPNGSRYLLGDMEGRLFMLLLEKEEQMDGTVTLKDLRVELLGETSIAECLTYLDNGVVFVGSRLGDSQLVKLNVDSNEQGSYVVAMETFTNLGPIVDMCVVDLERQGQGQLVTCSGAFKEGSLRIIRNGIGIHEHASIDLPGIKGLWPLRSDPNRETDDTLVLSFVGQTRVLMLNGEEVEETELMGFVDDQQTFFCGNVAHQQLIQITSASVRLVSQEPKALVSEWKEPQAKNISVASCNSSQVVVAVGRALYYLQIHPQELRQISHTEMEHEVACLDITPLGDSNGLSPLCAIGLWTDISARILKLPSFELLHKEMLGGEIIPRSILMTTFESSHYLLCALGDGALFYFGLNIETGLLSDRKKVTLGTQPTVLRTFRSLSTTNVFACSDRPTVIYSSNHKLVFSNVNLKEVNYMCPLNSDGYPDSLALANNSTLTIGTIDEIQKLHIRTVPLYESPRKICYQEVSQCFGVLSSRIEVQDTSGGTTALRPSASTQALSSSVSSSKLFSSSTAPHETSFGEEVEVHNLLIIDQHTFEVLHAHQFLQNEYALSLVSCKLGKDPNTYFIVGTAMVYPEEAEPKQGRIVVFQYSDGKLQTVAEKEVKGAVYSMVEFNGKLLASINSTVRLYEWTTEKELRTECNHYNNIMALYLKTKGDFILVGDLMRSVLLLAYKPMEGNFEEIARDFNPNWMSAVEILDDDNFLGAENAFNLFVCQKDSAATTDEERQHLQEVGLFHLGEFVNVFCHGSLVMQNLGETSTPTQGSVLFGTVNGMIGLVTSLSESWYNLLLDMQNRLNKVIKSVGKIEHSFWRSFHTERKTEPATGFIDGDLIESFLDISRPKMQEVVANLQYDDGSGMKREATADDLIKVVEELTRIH
Conditions: not given
Here is the method: (§1) The Prolabel system from DiscoverX was used to develop high-throughput and quantitative assays to measure changes in IKZF1, IKZF2 and GSPT1 protein levels in response to compounds. The prolabel tag was derived from the alpha fragment of beta galactosidase and has the following protein sequence: mssnslavvlqadwenpgvtqlnrlaahppfaswrnseeartdipsqqlislnge. The complementary fragment of beta-galactosidase (from DiscoverX), is added to the prolabel tag to form an active beta galactosidase enzyme whose activity can be precisely measured. In this way, the levels of a fusion protein with the prolabel tag can be quantified in cell lysates.
Lentiviral vectors, based on the Invitrogen pLenti6.2/V5 DEST backbone, were constructed that placed the prolabel tag upstream of IKZF1, IKZF2 or GSPT1 and expressed the fusion protein from a CMV promoter.
To ensure moderate and consistent expression of the prolabel fusion proteins across all cells in the population, stable cell lines were constructed from cells expressing a single copy of the construct. Lentivirus packaged with the constructs was made using the Virapower kit from Invitrogen.
The levels of prolabel tagged fusion proteins in compound treated cell lines were measured as follows:
Day 1, Cells were diluted to 1.0×10^6 cells/ml in normal growth medium. 17.5 μL of cells were plated in each well of a solid white 384 well plate. Plates were incubated overnight in a 37° C. tissue culture incubator.
Day 2, Serial dilutions of compounds were made in 384 well plates from 10 mM stocks. 15 μL of DMSO was added to each well of a 384 well plate. In the first column, 15 μL of stock compound was added. The solution was mixed and 15 μL was transferred to the next column. This was repeated until 20 two-fold dilutions were prepared. 2.5 μL of diluted compounds were transferred into 60 μL of cell culture medium in another 384 well plate, and mixed well. […] of this mixture was added to the plated cells. The final DMSO concentration was 0.5% and the highest concentration of compound was 50 μM. Plates were incubated overnight (e.g., about 14 h, 18 h, or 24 h) in a 37° C. tissue culture incubator.
Day 3, Plates were removed from the incubator and allowed to equilibrate at r.t. for 30 minutes. Prolabel substrate (DiscoverX PathHunter Prolabel Detection Kit, User manual: 93-0180) was added as described by the manufacturers protocols. Plates were incubated at r.t. for three hours and luminescence was read using an Envision reader (Perkin Elmer) Data was analyzed and visualized using the Spotfire software package.
Consider `O=C1CCC(N2Cc3cc(-c4nc5[nH]c(=O)ccc5[nH]4)ccc3C2=O)C(=O)N1` (stereo not shown) [Compound I-6, 3-(1-oxo-5-(5-oxo-4,5-dihydro-1H-imidazo[4,5-b]pyridin-2-yl)isoindolin-2-yl)piperidine-2,6-dione], for which the “IKZF2 % protein reduction at 10 μM, 24 h” value was determined as 75%.
Still for that read-out and setting: under `CCn1nc(-c2ccc3c(c2)CN(C2CCC(=O)NC2=O)C3=O)cc1C(F)(F)F` (stereo not shown) [Compound I-7, 3-(5-(1-ethyl-5-(trifluoromethyl)-1H-pyrazol-3-yl)-1-oxoisoindolin-2-yl)piperidine-2,6-dione] stands 10%; under `CCNc1ccc(-c2ccc3c(c2)CN(C2CCC(=O)NC2=O)C3=O)nn1` (stereo not shown) [Compound I-22, 3-(5-(6-(ethylamino)pyridazin-3-yl)-1-oxoisoindolin-2-yl)piperidine-2,6-dione], 60%.
In the case of `CO[C@H]1CC[C@H](Cc2ccc(-c3ccc4c(c3)CN(C3CCC(=O)NC3=O)C4=O)nn2)CC1` (stereo partly shown) [Compound I-25], the “IKZF2 % protein reduction at 10 μM, 24 h” value is on record as 68%.
Still for that read-out and setting: under `COc1cc(Cc2ccccc2)nnc1-c1ccc2c(c1)CN(C1CCC(=O)NC1=O)C2=O` (stereo not shown) [Compound I-28, 3-(5-(6-benzyl-4-methoxypyridazin-3-yl)-1-oxoisoindolin-2-yl)piperidine-2,6-dione] stands 73%.
Still for that read-out and setting: under `CCn1nc(-c2ccc3c(c2)CN(C2CCC(=O)NC2=O)C3=O)cc1OC` (stereo not shown) [Compound I-34, 3-(5-(1-ethyl-5-methoxy-1H-pyrazol-3-yl)-1-oxoisoindolin-2-yl)piperidine-2,6-dione] stands 50%; under `COc1cc(-c2ccc3c(c2)CN(C2CCC(=O)NC2=O)C3=O)nn1Cc1ccccc1` (stereo not shown) [Compound I-40, 3-(5-(1-benzyl-5-methoxy-1H-pyrazol-3-yl)-1-oxoisoindolin-2-yl)piperidine-2,6-dione], 80%.
On the same count and under the same terms, for `O=C1CCC(N2Cc3cc(-c4cccnn4)ccc3C2=O)C(=O)N1` (stereo not shown) [Compound I-42, 3-(1-oxo-5-(pyridazin-3-yl)isoindolin-2-yl)piperidine-2,6-dione] the value was 80%.
With `CCN(CC)Cc1ccc(-c2ccc3c(c2)CN(C2CCC(=O)NC2=O)C3=O)nn1` (stereo not shown) [Compound I-43, 3-(5-(6-((diethylamino)methyl)pyridazin-3-yl)-1-oxoisoindolin-2-yl)piperidine-2,6-dione], the “IKZF2 % protein reduction at 10 μM, 24 h” value was 40%.
The same measure, in the same setting: for `O=C1CCC(N2Cc3cc(-c4nc5ncccc5[nH]4)ccc3C2=O)C(=O)N1` (stereo not shown) [Compound I-46, 3-(5-(1H-imidazo[4,5-b]pyridin-2-yl)-1-oxoisoindolin-2-yl)piperidine-2,6-dione] the value was 80%.

The same assay, now with this note: 10 μM, 24 h, Prolabel assay, 293GT cells.
As to `O=C1CCC(N2Cc3cc(-c4cn(Cc5ccccc5)cn4)ccc3C2=O)C(=O)N1` (stereo not shown) [Compound I-1, 3-(5-(1-benzyl-1H-imidazol-4-yl)-1-oxoisoindolin-2-yl)piperidine-2,6-dione], the “IKZF2 % protein reduction at 10 μM, 24 h” value is reported as 0%.
On the same count and under the same terms, under `Cc1c[nH]nc1-c1ccc2c(c1)CN(C1CCC(=O)NC1=O)C2=O` (stereo not shown) [Compound I-3, 3-(5-(4-methyl-1H-pyrazol-3-yl)-1-oxoisoindolin-2-yl)piperidine-2,6-dione] stands 50%; under `Cc1cc(-c2ccc3c(c2)CN(C2CCC(=O)NC2=O)C3=O)nn1Cc1ccccc1` (stereo not shown) [Compound I-4, 3-(5-(1-benzyl-5-methyl-1H-pyrazol-3-yl)-1-oxoisoindolin-2-yl)piperidine-2,6-dione], 50%; under `Cc1cc(-c2ccc3c(c2)CN(C2CCC(=O)NC2=O)C3=O)nn1Cc1ccc(C#N)cc1` (stereo not shown) [Compound I-5, 4-((3-(2-(2,6-dioxopiperidin-3-yl)-1-oxoisoindolin-5-yl)-5-methyl-1H-pyrazol-1-yl)methyl)benzonitrile], 35%.
Still for that read-out and setting: for `O=C1CCC(N2Cc3cc(-c4cc[nH]n4)ccc3C2=O)C(=O)N1` (stereo not shown) [Compound I-8, 3-(1-oxo-5-(1H-pyrazol-3-yl)isoindolin-2-yl)piperidine-2,6-dione] the value was 10%; for `O=C1CCC(N2Cc3cc(-c4ccn(Cc5ccccc5)n4)ccc3C2=O)C(=O)N1` (stereo not shown) [Compound I-9, 3-(5-(1-benzyl-1H-pyrazol-3-yl)-1-oxoisoindolin-2-yl)piperidine-2,6-dione], 20%; for `CCn1nc(-c2ccc3c(c2)CN(C2CCC(=O)NC2=O)C3=O)c2ccccc21` (stereo not shown) [Compound I-11, 3-(5-(1-ethyl-1H-indazol-3-yl)-1-oxoisoindolin-2-yl)piperidine-2,6-dione], 30%.
For `O=C1CCC(N2Cc3cc(-c4nn(Cc5ccccc5)c5c4CCCC5)ccc3C2=O)C(=O)N1` (stereo not shown) [Compound I-15, 3-(5-(1-benzyl-4,5,6,7-tetrahydro-1H-indazol-3-yl)-1-oxoisoindolin-2-yl)piperidine-2,6-dione], the “IKZF2 % protein reduction at 10 μM, 24 h” value is recorded as 50%.
On the same count and under the same terms, for `Cc1cc(-c2ccc3c(c2)CN(C2CCC(=O)NC2=O)C3=O)n[nH]1` (stereo not shown) [Compound I-16, 3-(5-(5-methyl-1H-pyrazol-3-yl)-1-oxoisoindolin-2-yl)piperidine-2,6-dione] the value was 0%.
On the same count and under the same terms, for `Cc1cn(Cc2ccccc2)nc1-c1ccc2c(c1)CN(C1CCC(=O)NC1=O)C2=O` (stereo not shown) [Compound I-17, 3-(5-(1-benzyl-4-methyl-1H-pyrazol-3-yl)-1-oxoisoindolin-2-yl)piperidine-2,6-dione] the value was 60%; for `O=C1CCC(N2Cc3cc(-c4n[nH]c5ccccc45)ccc3C2=O)C(=O)N1` (stereo not shown) [Compound I-18, 3-(5-(1H-indazol-3-yl)-1-oxoisoindolin-2-yl)piperidine-2,6-dione], 40%.
On the same count and under the same terms, for `O=C1CCC(N2Cc3cc(-c4nn(Cc5ccccc5)c5ccccc45)ccc3C2=O)C(=O)N1` (stereo not shown) [Compound I-19, 3-(5-(1-benzyl-1H-indazol-3-yl)-1-oxoisoindolin-2-yl)piperidine-2,6-dione] the value was 0%; for `CCNc1cnnc(-c2ccc3c(c2)CN(C2CCC(=O)NC2=O)C3=O)c1` (stereo not shown) [Compound I-21, 3-(5-(5-(ethylamino)pyridazin-3-yl)-1-oxoisoindolin-2-yl)piperidine-2,6-dione], 60%; for `O=C1CCC(N2Cc3cc(-c4ccc(Cc5ccccc5)nn4)ccc3C2=O)C(=O)N1` (stereo not shown) [Compound I-24, 3-(5-(6-benzylpyridazin-3-yl)-1-oxoisoindolin-2-yl)piperidine-2,6-dione], 90%.

Another assay deals with IKZF1 (Homo sapiens, UniProt Q13422+Q96SW2). Description: Prolabel quantification of IKZF1 protein levels in 293GT cells. The class given is cell-based. The following applies: Prolabel assay. As to the method: as §1
Sequence of IKZF1 (Q13422 whole entry, the tested form may be a part): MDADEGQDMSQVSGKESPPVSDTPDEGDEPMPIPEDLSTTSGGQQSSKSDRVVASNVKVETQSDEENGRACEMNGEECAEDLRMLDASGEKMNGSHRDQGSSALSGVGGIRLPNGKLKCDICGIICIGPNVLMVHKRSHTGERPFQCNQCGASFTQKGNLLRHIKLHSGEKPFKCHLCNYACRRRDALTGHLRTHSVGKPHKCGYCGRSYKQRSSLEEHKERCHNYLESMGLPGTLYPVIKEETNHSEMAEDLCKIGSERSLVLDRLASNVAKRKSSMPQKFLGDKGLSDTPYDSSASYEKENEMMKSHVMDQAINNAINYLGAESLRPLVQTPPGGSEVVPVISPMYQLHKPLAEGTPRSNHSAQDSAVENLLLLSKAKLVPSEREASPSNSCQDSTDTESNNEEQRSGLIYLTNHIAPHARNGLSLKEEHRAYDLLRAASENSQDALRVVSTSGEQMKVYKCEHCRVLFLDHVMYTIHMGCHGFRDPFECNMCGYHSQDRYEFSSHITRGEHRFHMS
Sequence of IKZF1 (Q96SW2 whole entry, the tested form may be a part): as the sequence (Q96SW2 whole entry) above
Sequence of IKZF1 (Q16531 whole entry partner, the tested form may be a part): as the sequence (Q16531 whole entry partner) above
Lentiviral vectors, based on the Invitrogen pLenti6.2/V5 DEST backbone, were constructed that placed the prolabel tag upstream of IKZF1, IKZF2 or GSPT1 and expressed the fusion protein from a CMV promoter. […]
The levels of prolabel tagged fusion proteins in compound treated cell lines were measured as follows: […]
Day 3, Plates were removed from the incubator and allowed to equilibrate at r.t. for 30 minutes. […] Plates were incubated at r.t. for three hours and luminescence was read using an Envision reader (Perkin Elmer) Data was analyzed and visualized using the Spotfire software package.
Regarding `Nc1cccc2c1C(=O)N(C1CCC(=O)NC1=O)C2=O` (stereo not shown) [Control, Pomalidomide], the “IKZF1 degradation @ 10 μM” value is “(80%”.
